Converted amounts (≈) assume the structure as drawn. Like-named read-outs stand apart in the source and are kept apart here.
How the values were obtained:
[1] = solubility of branaplam in selected excipients; assay type: physicochemical; conditions: pH 4, aqueous with cosolvent or surfactant or cyclodextrin, thermodynamic from solid
Experimental: (§1) Solubility of branaplam was evaluated in excipients, other than cyclodextrin, such as Cremophor RH40, Tween 80, PG, PEG300, and glycerol. These excipients and concentrations were selected as they are suitable for paediatric formulations. None of the tested excipients was able to support development of a formulation comprising branaplam at a concentration high enough (i.e. about 2 mg/ml or higher) to keep the dose volume in a suitable range (Table 6).
as §1, with “5a).” for “6).”
Solubility of branaplam was measured as follows: stock solutions for the excipients at target concentrations were prepared using milli-Q water and adjusted using pH 4.0 buffer. […] Suspensions were stirred for 24 hours (using a magnetic stirrer) ensuring sufficient swirling and monitoring the temperature. The suspensions were filtered through 0.45 μm nominal pore size filter (e.g. using a PES syringe), and the concentration of branaplam in the filtrate was measured using HPLC (high performance liquid chromatography). The measurements were performed in duplicate and average of the values are reported.

[2] = pH-dependent stability and compatibility with preservatives; assay type: physicochemical

CC1(C)CC(Oc2ccc(-c3ccc(-c4cn[nH]c4)cc3O)nn2)CC(C)(C)N1 [branaplam, 5-(1H-pyrazol-4-yl)-2-(6-((2,2,6,6-tetramethylpiperidin-4-yl)oxy)pyridazin-3-yl)phenol]
solubility at 24 h ([1]; aqueous excipient stock solution, 2 °C, in Cremophor RH 40 7.0% (w/w), 2-8° C., read-out: Solubility (mg/mL) 2-8° C.): 0.71 mg/mL (≈ 1800 µM)
solubility at 24 h ([1]; aqueous excipient stock solution, 2 °C, in Cremophor RH 40 15.0% (w/w), 2-8° C., read-out: Solubility (mg/mL) 2-8° C.): 1.19 mg/mL (≈ 3020 µM)
solubility at 24 h ([1]; aqueous excipient stock solution, 2 °C, in Glycerol 5.0% (w/v), pH 4.0 buffer, 2-8° C., read-out: Solubility (mg/mL) 2-8° C.): 0.2 mg/mL (≈ 508 µM)
solubility at 24 h ([1]; aqueous excipient stock solution, 2 °C, in Glycerol 10.0% (w/v), pH 4.0 buffer, 2-8° C., read-out: Solubility (mg/mL) 2-8° C.): 0.19 mg/mL (≈ 483 µM)
solubility at 24 h ([1]; aqueous excipient stock solution, 2 °C, in Glycerol 25.0% (w/w), 2-8° C., read-out: Solubility (mg/mL) 2-8° C.): 0.37 mg/mL (≈ 940 µM)
solubility at 24 h ([1]; aqueous excipient stock solution, 2 °C, in PEG 300 5.0% (w/v), pH 4.0 buffer, 2-8° C., read-out: Solubility (mg/mL) 2-8° C.): 0.27 mg/mL (≈ 686 µM)
solubility at 24 h ([1]; aqueous excipient stock solution, 2 °C, in PEG 300 10.0% (w/v), pH 4.0 buffer, 2-8° C., read-out: Solubility (mg/mL) 2-8° C.): 0.34 mg/mL (≈ 864 µM)
solubility at 24 h ([1]; aqueous excipient stock solution, 2 °C, in PEG 300 25.0% (w/v), pH 4.0 buffer, 2-8° C., read-out: Solubility (mg/mL) 2-8° C.): 0.87 mg/mL (≈ 2210 µM)
solubility at 24 h ([1]; aqueous excipient stock solution, 2 °C, in PEG 400 5.0% (w/v), pH 4.0 buffer, 2-8° C., read-out: Solubility (mg/mL) 2-8° C.): 0.21 mg/mL (≈ 534 µM)
solubility at 24 h ([1]; aqueous excipient stock solution, 2 °C, in PEG 400 10.0% (w/v), pH 4.0 buffer, 2-8° C., read-out: Solubility (mg/mL) 2-8° C.): 0.45 mg/mL (≈ 1140 µM)
solubility at 24 h ([1]; aqueous excipient stock solution, 2 °C, in PEG 400 25.0% (w/v), pH 4.0 buffer, 2-8° C., read-out: Solubility (mg/mL) 2-8° C.): 0.93 mg/mL (≈ 2360 µM)
solubility at 24 h ([1]; aqueous excipient stock solution, 2 °C, in Propylene glycol 5.0% (w/v), pH 4.0 buffer, 2-8° C., read-out: Solubility (mg/mL) 2-8° C.): 0.16 mg/mL (≈ 407 µM)
solubility at 24 h ([1]; aqueous excipient stock solution, 2 °C, in Propylene glycol 10.0% (w/v), pH 4.0 buffer, 2-8° C., read-out: Solubility (mg/mL) 2-8° C.): 0.18 mg/mL (≈ 457 µM)
solubility at 24 h ([1]; aqueous excipient stock solution, 2 °C, in Propylene glycol 25.0% (w/v), pH 4.0 buffer, 2-8° C., read-out: Solubility (mg/mL) 2-8° C.): 0.42 mg/mL (≈ 1070 µM)
solubility at 24 h ([1]; aqueous excipient stock solution, 2 °C, in Tween 80 0.5% (w/v), pH 4.0 buffer, 2-8° C., read-out: Solubility (mg/mL) 2-8° C.): 0.16 mg/mL (≈ 407 µM)
solubility at 24 h ([1]; aqueous excipient stock solution, 2 °C, in Tween 80 0.8% (w/v), pH 4.0 buffer, 2-8° C., read-out: Solubility (mg/mL) 2-8° C.): 0.22 mg/mL (≈ 559 µM)
solubility at 24 h ([1]; aqueous excipient stock solution, 2 °C, in Tween 80 1.5% (w/v), pH 4.0 buffer, 2-8° C., read-out: Solubility (mg/mL) 2-8° C.): 0.29 mg/mL (≈ 737 µM)
solubility at 24 h ([1]; aqueous excipient stock solution, 2 °C, in Tween 80 5.0% (w/v), pH 4.0 buffer, 2-8° C., read-out: Solubility (mg/mL) 2-8° C.): 0.73 mg/mL (≈ 1860 µM)
solubility at 24 h ([1]; aqueous excipient stock solution, 25 °C, in Cremophor RH 40 1.0% (w/w), RT, read-out: Solubility (mg/mL) RT): 0.28 mg/mL (≈ 712 µM)
solubility at 24 h ([1]; aqueous excipient stock solution, 25 °C, in Cremophor RH 40 3.5% (w/w), RT, read-out: Solubility (mg/mL) RT): 0.53 mg/mL (≈ 1350 µM)
solubility at 24 h ([1]; aqueous excipient stock solution, 25 °C, in Cremophor RH 40 7.0% (w/w), RT, read-out: Solubility (mg/mL) RT): 0.84 mg/mL (≈ 2130 µM)
solubility at 24 h ([1]; aqueous excipient stock solution, 25 °C, in Cremophor RH 40 15.0% (w/w), RT, read-out: Solubility (mg/mL) RT): 1.32 mg/mL (≈ 3350 µM)
solubility at 24 h ([1]; aqueous excipient stock solution, 25 °C, in Glycerol 5.0% (w/v), pH 4.0 buffer, RT, read-out: Solubility (mg/mL) RT): 0.18 mg/mL (≈ 457 µM)
solubility at 24 h ([1]; aqueous excipient stock solution, 25 °C, in Glycerol 10.0% (w/v), pH 4.0 buffer, RT, read-out: Solubility (mg/mL) RT): 0.22 mg/mL (≈ 559 µM)
solubility at 24 h ([1]; aqueous excipient stock solution, 25 °C, in Glycerol 25.0% (w/w), RT, read-out: Solubility (mg/mL) RT): 0.38 mg/mL (≈ 966 µM)
solubility at 24 h ([1]; aqueous excipient stock solution, 25 °C, in PEG 300 5.0% (w/v), pH 4.0 buffer, RT, read-out: Solubility (mg/mL) RT): 0.39 mg/mL (≈ 991 µM)
solubility at 24 h ([1]; aqueous excipient stock solution, 25 °C, in PEG 300 10.0% (w/v), pH 4.0 buffer, RT, read-out: Solubility (mg/mL) RT): 0.64 mg/mL (≈ 1630 µM)
solubility at 24 h ([1]; aqueous excipient stock solution, 25 °C, in PEG 300 25.0% (w/v), pH 4.0 buffer, RT, read-out: Solubility (mg/mL) RT): 1.61 mg/mL (≈ 4090 µM)
solubility at 24 h ([1]; aqueous excipient stock solution, 25 °C, in PEG 400 5.0% (w/v), pH 4.0 buffer, RT, read-out: Solubility (mg/mL) RT): 0.39 mg/mL (≈ 991 µM)
solubility at 24 h ([1]; aqueous excipient stock solution, 25 °C, in PEG 400 10.0% (w/v), pH 4.0 buffer, RT, read-out: Solubility (mg/mL) RT): 0.63 mg/mL (≈ 1600 µM)
solubility at 24 h ([1]; aqueous excipient stock solution, 25 °C, in PEG 400 25.0% (w/v), pH 4.0 buffer, RT, read-out: Solubility (mg/mL) RT): 1.47 mg/mL (≈ 3740 µM)
solubility at 24 h ([1]; aqueous excipient stock solution, 25 °C, in Propylene glycol 5.0% (w/v), pH 4.0 buffer, RT, read-out: Solubility (mg/mL) RT): 0.27 mg/mL (≈ 686 µM)
solubility at 24 h ([1]; aqueous excipient stock solution, 25 °C, in Propylene glycol 10.0% (w/v), pH 4.0 buffer, RT, read-out: Solubility (mg/mL) RT): 0.37 mg/mL (≈ 940 µM)
solubility at 24 h ([1]; aqueous excipient stock solution, 25 °C, in Propylene glycol 25.0% (w/v), pH 4.0 buffer, RT, read-out: Solubility (mg/mL) RT): 0.94 mg/mL (≈ 2390 µM)
solubility at 24 h ([1]; aqueous excipient stock solution, 25 °C, in Tween 80 0.5% (w/v), pH 4.0 buffer, RT, read-out: Solubility (mg/mL) RT): 0.25 mg/mL (≈ 635 µM)
solubility at 24 h ([1]; aqueous excipient stock solution, 25 °C, in Tween 80 0.8% (w/v), pH 4.0 buffer, RT, read-out: Solubility (mg/mL) RT): 0.28 mg/mL (≈ 712 µM)
solubility at 24 h ([1]; aqueous excipient stock solution, 25 °C, in Tween 80 1.5% (w/v), pH 4.0 buffer, RT, read-out: Solubility (mg/mL) RT): 0.41 mg/mL (≈ 1040 µM)
solubility at 24 h ([1]; aqueous excipient stock solution, 25 °C, in Tween 80 5.0% (w/v), pH 4.0 buffer, RT, read-out: Solubility (mg/mL) RT): 0.89 mg/mL (≈ 2260 µM)
solubility at 24 h ([1]; glycerol 25.0% (w/v) aqueous solution in pH 4.0 buffer, 2 °C, in Glycerol 25.0% (w/v), pH 4.0 buffer, 2-8° C., read-out: Solubility (mg/mL) 2-8° C.): 0.37 mg/mL (≈ 940 µM)
solubility at 24 h ([1]; glycerol 25.0% (w/v) aqueous solution in pH 4.0 buffer, 25 °C, in Glycerol 25.0% (w/v), pH 4.0 buffer, RT, read-out: Solubility (mg/mL) RT): 0.38 mg/mL (≈ 966 µM)
pH-dependent stability [2]: poor stability under pH 4
compatibility with potassium sorbate ([2]; preservative potassium sorbate): incompatibility with potassium sorbate
